Legend:
[1] = biological target: PD-1/PD-L1 PPI (Homo sapiens, UniProt Q9NZQ7); experiment: PDL1/PD1 Binding Assay; conditions: PDL1-6×His 0.3 nM, PD1-Fc-Avi-Biotin 2.5 nM, Acceptor/Donor beads, Envision reader
Outline: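 AlphaScreen competition: compound (1% DMSO) preincubated 30 min RT with PDL1-6×His (0.3 nM), then PD1-Fc-Avi-Biotin (2.5 nM) 30 min; anti-His acceptor and streptavidin donor beads (20 ug/mL each) added, 1 h each, dark up to overnight. Buffer 25 mM Hepes pH 7.4, 150 mM NaCl. IC50 by four-parameter fit.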

[2] = test system: PD-1/PD-L1 interaction; experiment: PD-1/PD-L1 NFAT Reporter Assay (co-culture of Jurkat T cells overexpressing PD-1 and PD-L1 expressing CHO cells); type: cell-based; conditions: co-culture 6 hrs at 37° C., NFAT-mediated luciferase activity
Outline: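 Compounds added to CHO cells expressing surface anti-CD3 and PD-L1, then Jurkat cells with PD-1 and NFAT-driven luciferase seeded on top; co-culture 6 hrs at 37° C. Luminescence read after ONE-Glo addition, EC50 from dose-response fit.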

Sequence of PD-1/PD-L1 PPI (Q9NZQ7 19-238 limits assumed): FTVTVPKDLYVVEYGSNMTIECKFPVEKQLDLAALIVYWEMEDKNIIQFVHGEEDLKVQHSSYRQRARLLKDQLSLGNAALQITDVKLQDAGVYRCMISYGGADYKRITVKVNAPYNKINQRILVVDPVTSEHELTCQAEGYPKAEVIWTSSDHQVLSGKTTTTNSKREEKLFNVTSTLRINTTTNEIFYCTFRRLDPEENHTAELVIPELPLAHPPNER

Row | SMILES | IC50 [1] [µM] | EC50 ([2]; Homo sapiens, Jurkat, 6 h) [µM] | EC50 [2] [µM]
1 | COc1nc(-c2cccc(-c3cccc(NC(=O)c4cn(C)c(=O)[nH]c4=O)c3C)c2Cl)cc2c1[C@@H](NC[C@@H]1CCC(=O)N1)CC2 [Compound A-56] | ≤ 0.01 | 0.01 to 0.1 | –
2 | COc1nc(-c2cccc(-c3cccc(NC(=O)c4cn(C)c(=O)n(C)c4=O)c3C#N)c2Cl)cc2c1[C@@H](NC[C@@H]1CCC(=O)N1)CC2 [Compound A-57] | ≤ 0.01 | ≤ 0.01 | –
3 | COc1nc(-c2cccc(-c3cccc(NC(=O)c4nn(C)c(=O)n(C)c4=O)c3C)c2Cl)cc2c1[C@@H](NC[C@@H]1CCC(=O)N1)CC2 [Compound A-58] | ≤ 0.01 | ≤ 0.01 | –
4 | COc1nc(-c2cccc(-c3ccc(F)c(NC(=O)c4cn(C)c(=O)n(C)c4=O)c3C)c2Cl)cc2c1[C@@H](NC[C@@H]1CCC(=O)N1)CC2 [Compound A-59] | ≤ 0.01 | 0.01 to 0.1 | –
5 | COc1nc(-c2cccc(-c3cc(F)cc(NC(=O)c4cn(C)c(=O)n(C)c4=O)c3C)c2Cl)cc2c1[C@@H](NC[C@@H]1CCC(=O)N1)CC2 [Compound A-60] | ≤ 0.01 | ≤ 0.01 | –
6 | COc1nc(-c2cccc(-c3cc(Cl)cc(NC(=O)c4cn(C)c(=O)n(C)c4=O)c3C)c2Cl)cc2c1[C@@H](NC[C@@H]1CCC(=O)N1)CC2 [Compound A-61] | ≤ 0.01 | 0.01 to 0.1 | –
7 | COc1nc(-c2cccc(-c3cc(F)cc(NC(=O)c4nn(C)c(=O)n(C)c4=O)c3C)c2Cl)cc2c1[C@@H](NC[C@@H]1CCC(=O)N1)CC2 [Compound A-62] | ≤ 0.01 | ≤ 0.01 | –
8 | COc1nc(-c2cccc(-c3cc(F)cc(NC(=O)c4ccnn(C)c4=O)c3C)c2Cl)cc2c1[C@@H](NC[C@@H]1CCC(=O)N1)CC2 [Compound A-63] | ≤ 0.01 | ≤ 0.01 | –
9 | COc1nc(-c2cc(F)cc(-c3cc(F)cc(NC(=O)c4cn(C)c(=O)n(C)c4=O)c3C)c2Cl)cc2c1[C@@H](NC[C@@H]1CCC(=O)N1)CC2 [Compound A-64] | ≤ 0.01 | ≤ 0.01 | –
10 | COc1nc(-c2cccc(-c3cc(F)cc(NC(=O)c4cn(C)c(=O)n(C)c4=O)c3Cl)c2Cl)cc2c1[C@@H](NC[C@@H]1CCC(=O)N1)CC2 [Compound A-65] | ≤ 0.01 | ≤ 0.01 | –
11 | COc1nc(-c2cc(F)cc(-c3cc(F)cc(NC(=O)c4cn(C)c(=O)n(C)c4=O)c3Cl)c2Cl)cc2c1[C@@H](NC[C@@H]1CCC(=O)N1)CC2 [Compound A-66] | ≤ 0.01 | 0.01 to 0.1 | –
12 | COc1nc(-c2ccc(F)c(-c3cccc(NC(=O)c4cn(C)c(=O)n(C)c4=O)c3C)c2F)cc2c1[C@@H](NC[C@@H]1CCC(=O)N1)CC2 [Compound A-67] | ≤ 0.01 | ≤ 0.01 | –
13 | COc1nc(-c2ccc(F)c(-c3cccc(NC(=O)c4cn(C)c(=O)n(C)c4=O)c3C)c2F)cc2c1[C@@H](NC[C@@H]1CCC(=O)N1)CC2 [Compound A-68] | ≤ 0.01 | – | 0.01 to 0.1
14 | COc1nc(-c2cc(F)cc(-c3cccc(NC(=O)c4cn(C)c(=O)n(C)c4=O)c3C)c2Cl)cc2c1[C@@H](NC[C@@H]1CCC(=O)N1)CC2 [Compound A-69] | ≤ 0.01 | ≤ 0.01 | –
15 | COc1nc(-c2c(F)ccc(-c3cccc(NC(=O)c4cn(C)c(=O)n(C)c4=O)c3C)c2F)cc2c1[C@@H](NC[C@@H]1CCC(=O)N1)CC2 [Compound A-70] | ≤ 0.01 | 0.01 to 0.1 | –
16 | COc1nc(-c2cccc(-c3cccc(NC(=O)c4cn(C)c(=O)n(C)c4=O)c3Cl)c2Cl)cc2c1C(N1CCN3C(=O)CC[C@H]3C1)CC2 (stereo partly drawn) [Compound A-117] | ≤ 0.01 | 0.01 to 0.1 | –
17 | COc1nc(-c2cccc(-c3cccc(NC(=O)c4cn(C)c(=O)n(C)c4=O)c3Cl)c2Cl)cc2c1C(N1CCN3C(=O)CC[C@@H]3C1)CC2 (stereo partly drawn) [Compound A-118] | ≤ 0.01 | 0.01 to 0.1 | –
18 | COc1nc(-c2cccc(-c3cccc(NC(=O)c4cn(C)c(=O)n(C)c4=O)c3Cl)c2Cl)cc2c1C(N1CCC3(CN(C(=O)OC(C)(C)C)C3)C1)CC2 (stereo not drawn) [Compound A-119] | ≤ 0.01 | 0.1 to 1 | –
19 | COc1nc(-c2cccc(-c3cccc(NC(=O)c4cn(C)c(=O)n(C)c4=O)c3Cl)c2Cl)cc2c1C(N)C(O)C2 (stereo not drawn) [Compound A-120] | ≤ 0.01 | 0.01 to 0.1 | –
20 | COc1nc(-c2cccc(-c3cccc(NC(=O)c4cn(C)c(=O)n(C)c4=O)c3C)c2Cl)cc2c1C(NC[C@@H]1CCC(=O)N1)C(C)C2 (stereo partly drawn) [Compound A-121] | ≤ 0.01 | 0.01 to 0.1 | –
21 | COc1nc(-c2cccc(-c3cccc(NC(=O)c4cn(C)c(=O)n(C)c4=O)c3C)c2Cl)cc2c1C(NC[C@@H]1CCC(=O)N1)CC2C (stereo partly drawn) [Compound A-122] | ≤ 0.01 | 0.1 to 1 | –
22 | COc1nc(-c2cccc(-c3cccc(Nc4ncnc5cccnc45)c3Cl)c2Cl)cc2c1[C@@H](NC[C@@H]1CCC(=O)N1)CC2 [Compound B-2] | ≤ 0.01 | 0.01 to 0.1 | –
23 | COc1nc(-c2cccc(-c3cccc(Nc4nccc5cccnc45)c3Cl)c2Cl)cc2c1[C@@H](NC[C@@H]1CCC(=O)N1)CC2 [Compound B-3] | ≤ 0.01 | 0.1 to 1 | –
24 | COc1nc(-c2cccc(-c3cccc(Nc4nccc5nccnc45)c3Cl)c2Cl)cc2c1[C@@H](NC[C@@H]1CCC(=O)N1)CC2 [Compound B-4] | ≤ 0.01 | 0.01 to 0.1 | –
25 | COc1nc(-c2cccc(-c3cccc(NC(=O)c4cn(C)c(=O)n(C)c4=O)c3Cl)c2Cl)cc2c1C(N1CC(OC)C1)CC2 [Compound D-1] | ≤ 0.01 | ≤ 0.01 | –
26 | COc1nc(-c2cccc(-c3cccc(NC(=O)c4cn(C)c(=O)n(C)c4=O)c3Cl)c2Cl)cc2c1C(N1CC(O)C1)CC2 [Compound D-2] | ≤ 0.01 | ≤ 0.01 | –
27 | COc1nc(-c2cccc(-c3cccc(NC(=O)c4cn(C)c(=O)n(C)c4=O)c3Cl)c2Cl)cc2c1C(N1CC3(CCNC3=O)C1)CC2 [Compound D-3] | ≤ 0.01 | ≤ 0.01 | –
28 | COc1nc(-c2cccc(-c3cccc(NC(=O)c4cn(C)c(=O)n(C)c4=O)c3Cl)c2Cl)cc2c1C(N[C@@H]1COC[C@@H]1O)CC2 (stereo partly drawn) [Compound D-4] | ≤ 0.01 | 0.01 to 0.1 | –

Second part, the compound after the results:

Row | IC50 [1] [µM] | EC50 ([2]; Homo sapiens, Jurkat, 6 h) [µM] | EC50 [2] [µM] | SMILES
29 | ≤ 0.01 | ≤ 0.01 | – | COc1nc(-c2cccc(-c3cccc(NC(=O)c4cn(C)c(=O)n(C)c4=O)c3F)c2Cl)cc2c1[C@@H](NC[C@@H]1CCC(=O)N1)CC2 [Compound A-3]
30 | ≤ 0.01 | ≤ 0.01 | – | COc1nc(-c2cccc(-c3cccc(NC(=O)c4cn(C)c(=O)n(C)c4=O)c3Cl)c2C)cc2c1[C@@H](NC[C@@H]1CCC(=O)N1)CC2 [Compound A-4]
31 | ≤ 0.01 | ≤ 0.01 | – | COc1nc(-c2cccc(-c3cccc(NC(=O)c4cn(C)c(=O)n(C)c4=O)c3C)c2C)cc2c1[C@@H](NC[C@@H]1CCC(=O)N1)CC2 [Compound A-5]
32 | ≤ 0.01 | 0.01 to 0.1 | – | COc1nc(-c2cccc(-c3cccc(NC(=O)c4cn(C)c(=O)n(C)c4=O)c3F)c2C)cc2c1[C@@H](NC[C@@H]1CCC(=O)N1)CC2 [Compound A-6]
33 | ≤ 0.01 | ≤ 0.01 | – | COc1nc(-c2cccc(-c3cccc(NC(=O)c4cn(C)c(=O)n(C)c4=O)c3Cl)c2F)cc2c1[C@@H](NC[C@@H]1CCC(=O)N1)CC2 [Compound A-7]
34 | ≤ 0.01 | ≤ 0.01 | – | COc1nc(-c2cccc(-c3cccc(NC(=O)c4cn(C)c(=O)n(C)c4=O)c3C)c2F)cc2c1[C@@H](NC[C@@H]1CCC(=O)N1)CC2 [Compound A-8]
35 | ≤ 0.01 | 0.1 to 1 | – | COc1nc(-c2cccc(-c3cccc(NC(=O)c4cn(C)c(=O)n(C)c4=O)c3F)c2F)cc2c1[C@H](NC[C@@H]1CCC(=O)N1)CC2 [Compound A-17]
36 | ≤ 0.01 | ≤ 0.01 | – | COc1nc(-c2cccc(-c3cccc(NC(=O)c4ccnn(C)c4=O)c3Cl)c2Cl)cc2c1[C@@H](NC[C@@H]1CCC(=O)N1)CC2 [Compound A-43]
37 | ≤ 0.01 | 0.01 to 0.1 | – | COc1nc(-c2cccc(-c3cccc(NC(=O)c4ccnn(C)c4=O)c3Cl)c2Cl)cc2c1[C@@H](NC[C@@H]1CCC(=O)N1)CO2 [Compound A-44]
38 | ≤ 0.01 | 0.01 to 0.1 | – | COc1nc(-c2cccc(-c3cccc(NC(=O)c4ccnn(C)c4=O)c3C)c2F)cc2c1[C@@H](NC[C@@H]1CCC(=O)N1)CC2 [Compound A-45]
39 | ≤ 0.01 | ≤ 0.01 | – | COc1nc(-c2cccc(-c3cccc(NC(=O)c4ccnn(C)c4=O)c3C)c2Cl)cc2c1[C@@H](NC[C@@H]1CCC(=O)N1)CO2 [Compound A-46]
40 | ≤ 0.01 | ≤ 0.01 | – | COc1nc(-c2cccc(-c3cccc(NC(=O)c4ccnn(C)c4=O)c3C)c2Cl)cc2c1[C@@H](NC[C@@H]1CCC(=O)N1)CC2 [Compound A-47]
41 | ≤ 0.01 | ≤ 0.01 | – | COc1nc(-c2cccc(-c3cccc(NC(=O)c4ccn[nH]c4=O)c3Cl)c2Cl)cc2c1[C@@H](NC[C@@H]1CCC(=O)N1)CC2 [Compound A-51]
42 | ≤ 0.01 | 0.01 to 0.1 | – | COc1nc(-c2cccc(-c3cccc(NC(=O)c4ccn[nH]c4=O)c3C)c2Cl)cc2c1[C@@H](NC[C@@H]1CCC(=O)N1)CC2 [Compound A-52]
43 | ≤ 0.01 | 0.1 to 1 | – | COc1nc(-c2cccc(-c3cccc(NC(=O)c4cn(C)c(=O)n(C)c4=O)c3OC)c2Cl)cc2c1[C@@H](NC[C@@H]1CCC(=O)N1)CC2 [Compound A-53]
44 | ≤ 0.01 | 0.01 to 0.1 | – | COc1nc(-c2cccc(-c3cccc(NC(=O)c4c[nH]c(=O)[nH]c4=O)c3C)c2Cl)cc2c1[C@@H](NC[C@@H]1CCC(=O)N1)CC2 [Compound A-54]
45 | ≤ 0.01 | ≤ 0.01 | – | COc1nc(-c2cccc(-c3cccc(NC(=O)c4c[nH]c(=O)n(C)c4=O)c3C)c2Cl)cc2c1[C@@H](NC[C@@H]1CCC(=O)N1)CC2 [Compound A-55]

— patent US12534450B2, “Methods and compositions for targeting PD-L1” (Aligos Therapeutics, Inc., priority 2021, dated 2026)
